Where “and” joins values, the source holds several entries; their conditions need not be identical. Identical values can stand only once. Like-named read-outs stand apart in the source and are kept apart here.
Tests used:
[1] = molecular target: mushroom tyrosinase; test: Mushroom tyrosinase inhibition microplate assay (L-tyrosine substrate); assay type: biochemical; conditions: L-tyrosine as substrate; mean ± SE
Description: (§1) A microplate assay was used to assess tyrosinase inhibition, as previously described. Samples (20 μL) with various concentrations were transferred into each well of 96-well plate, and 120 μL of 20 mM sodium phosphate buffer (pH 6.8), 20 μL of 500 U/mL mushroom tyrosinase enzyme dissolved in buffer were added. […] The absorbance was recorded at 470 nm using a microplate reader (Benchmark plus, Biorad, Herfordshire, UK). […] For the kinetic studies of selected inhibitors, we used a range of L-tyrosine concentrations for each inhibitor concentration. Preincubation and measurement times were the same as above. Lineweaver-Burk plots were used to determine the type of enzyme inhibition, and the inhibition constant Ki was determined by plotting Km/Vmax versus the inhibitor concentration. Percent inhibition was calculated using the following equation: Inhibition (%) = ([CE − Co] − [SE − So])/(CE − Co) × 100 (1) where CE is the absorbance of the control samples with enzyme, Co is the absorbance of the control samples without enzyme, SE is the absorbance of the tested sample with enzyme, and So is the absorbance of the tested sample without enzyme.

[2] = tested on: intracellular tyrosinase in B16F10 melanoma cells; test: Intracellular tyrosinase inhibition assay; assay type: cell-based, Mouse; conditions: L-DOPA substrate, mean ± SE, read-out: IC50 for Cellular Tyrosinase Inhibition
Description: (§2) Mouse B16F10 cell line was obtained from American Type Culture Collection (Manassas, VA, USA). Cells were cultured in Dulbecco’s modified minimum essential medium (D-MEM) medium containing 10% fetal bovine serum (FBS), 1% penicillin/streptomycin in a humidified atmosphere with 5% CO2 incubator at 37 °C.
Cells were seeded in a 96-well plate at a density 5 × 10^3 cells/well and the compounds (10–500 μM) were added after 24 h treatment. Cells were incubated for 48 h, washed two times with 50 mM of ice-cold phosphate buffer (pH 6.8), lysed with 90 μL of 50 mM phosphate buffer (pH 6.8) containing 1% Triton-X, and frozen at −80 °C for 30 min. After thawing and mixing, 20 μL of 0.5% L-DOPA was added to each well. The mixture was incubated for 2 h at 37 °C and absorbance was measured at 490 nm.

[3] = tested on: COX-2; test: Colorimetric COX (ovine) inhibitor screening assay, COX-2; assay type: biochemical; conditions: ratio of COX-1 IC50 to COX-2 IC50
Description: (§3) Inhibition of COX activity was measured using a colorimetric COX (ovine) inhibitor screening assay kit (Cayman Chemical, Ann Arbor, Michigan, USA). First, 150 μL of assay buffer (0.1 M Tris-HCl, pH 8.0), 10 μL of heme, and 10 μL of enzyme (COX-1 or COX-2) were added to an […] 96-well microtiter plate. Immediately, 10 μL of sample was added to inhibitor wells while 10 μL of solvent or buffer was added to control and background wells, respectively. […] The mixture was shaken for a few seconds and incubated for an additional 5 min at 25 °C. The absorbance was determined at 590 nm using a microplate reader (Benchmark plus, Biorad, Herfordshire, UK). […] The corrected absorbance of all the samples and controls was calculated by subtracting the absorbance of the background wells. The percentage of inhibition was calculated as follows: Inhibition (%) = (Ao − As)/Ao × 100 (2) where Ao and As are the absorbance of the corrected control and sample, respectively.

[4] = molecular target: T1, COX-2 (Ovis aries, UniProt P79208); test: as above; assay type: biochemical; conditions: ovine COX-2, colorimetric kit; mean ± SE
T1 sequence (P79208 17-603): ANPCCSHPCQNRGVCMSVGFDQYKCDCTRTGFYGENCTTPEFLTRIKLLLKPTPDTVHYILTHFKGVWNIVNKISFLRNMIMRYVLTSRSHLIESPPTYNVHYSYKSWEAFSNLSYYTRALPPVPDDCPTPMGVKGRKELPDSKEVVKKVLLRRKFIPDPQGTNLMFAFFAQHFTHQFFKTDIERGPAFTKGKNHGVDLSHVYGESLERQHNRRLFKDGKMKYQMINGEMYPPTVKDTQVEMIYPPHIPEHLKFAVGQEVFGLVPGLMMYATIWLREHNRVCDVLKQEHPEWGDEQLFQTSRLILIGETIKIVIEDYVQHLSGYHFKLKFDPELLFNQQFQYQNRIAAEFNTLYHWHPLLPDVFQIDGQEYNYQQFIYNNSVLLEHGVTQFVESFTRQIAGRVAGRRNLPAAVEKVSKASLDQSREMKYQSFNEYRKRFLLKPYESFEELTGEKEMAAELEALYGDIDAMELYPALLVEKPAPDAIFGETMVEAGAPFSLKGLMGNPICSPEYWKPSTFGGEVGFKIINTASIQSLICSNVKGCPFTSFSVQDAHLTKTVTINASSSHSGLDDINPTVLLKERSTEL
Description: as §3

[5] = molecular target: T2, COX-1 (Ovis aries, UniProt P05979); test: Colorimetric COX (ovine) inhibitor screening assay, COX-1; assay type: biochemical; conditions: ovine COX-1, colorimetric kit; mean ± SE
T2 construct: purchased Cayman Chemical, Ann Arbor, Michigan, USA
T2 sequence (P05979 25-600): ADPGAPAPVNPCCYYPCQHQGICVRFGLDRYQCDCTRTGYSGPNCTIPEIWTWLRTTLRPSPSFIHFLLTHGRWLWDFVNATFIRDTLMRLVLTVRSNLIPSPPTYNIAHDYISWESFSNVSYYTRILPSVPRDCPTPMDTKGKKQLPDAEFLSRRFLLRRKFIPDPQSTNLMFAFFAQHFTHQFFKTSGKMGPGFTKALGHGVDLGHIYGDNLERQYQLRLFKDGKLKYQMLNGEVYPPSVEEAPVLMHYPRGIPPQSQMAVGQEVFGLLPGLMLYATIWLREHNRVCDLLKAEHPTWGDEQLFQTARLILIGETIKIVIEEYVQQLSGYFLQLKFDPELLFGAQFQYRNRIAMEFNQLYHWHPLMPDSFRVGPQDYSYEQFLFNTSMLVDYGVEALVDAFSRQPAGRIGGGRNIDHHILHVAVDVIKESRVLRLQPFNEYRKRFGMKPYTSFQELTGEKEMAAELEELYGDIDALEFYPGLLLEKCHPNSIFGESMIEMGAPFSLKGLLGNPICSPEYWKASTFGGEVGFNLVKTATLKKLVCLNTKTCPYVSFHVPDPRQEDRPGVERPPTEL
Description: as §3

[6] = tested on: B16F10 melanoma cells; test: Determination of melanin content in B16F10 cells; assay type: cell-based, Mouse; conditions: read-out: IC50 for Melanin Content Inhibition
Description: as §2
The assay was performed following previously described procedure. Cells (5 × 10^3 cells/well) were seeded in a 96-well plate and cultured for 24 h. Compounds (10–500 μM) were added and incubated at 37 °C for 48 h. The medium was replaced by a fresh medium containing the same concentration of compound and the cells were incubated for 48 h. The medium was removed and the cells were dissolved in 100 μL of 1 N NaOH. The reaction was heated at 90 °C for 1 h. Melanin content was estimated by the absorbance at 400 nm.

[7] = tested on: mushroom tyrosinase; test: Kinetic analysis of tyrosinase inhibition (Lineweaver-Burk plots); assay type: biochemical; conditions: substrate L-tyrosine; for Inhibition Type: Lineweaver-Burk plots, inhibitor 0, 5, 15 μM; for Ki: plot of Km/Vmax versus inhibitor concentration, read-out: Inhibition Constant (Ki)
Description: Tyrosinase activity was assayed as described in the text.
as §1

[8] = tested on: mushroom tyrosinase; parameters: method as in doi:10.1016/S0031-9422(00)82317-1; conditions: cited from earlier work
[9] = Mus musculus, B16-F10, mean ± SE

| SMILES | IC50 [1] | IC50 ([2]; Mus musculus, B16-F10, 48 h) | SI COX-1/COX-2 (selectivity index, COX-1 IC50/COX-2 IC50) [3] | IC50 [4] | IC50 [5] | IC50 [6, 9] | Inhibition Type [7] | Ki [7] | IC50 ([2]; 48 h) | IC50 ([6]; mean ± SE) | Inhibition type of tyrosinase [8] |
| --- | --- | --- | --- | --- | --- | --- | --- | --- | --- | --- | --- |
| C[C@@H](NC(=O)[C@@H](N)Cn1ccc(=O)c(O)c1)C(=O)O [Mi-D-Ala] | 17.7 ± 3.1 µM | 181 ± 6.8 µM | 0.10 | 198 ± 3.7 µM | 19.1 ± 1 µM | 199 ± 5.2 µM |  |  |  |  |  |
| N[C@@H](Cn1ccc(=O)c(O)c1)C(=O)N[C@H](Cc1ccccc1)C(=O)O [Mi-D-Phe] | 19.7 ± 0.8 µM | 194 ± 6.2 µM |  |  |  | 168.4 ± 1.4 µM |  |  |  |  |  |
| N[C@@H](Cn1ccc(=O)c(O)c1)C(=O)N1CCC[C@@H]1C(=O)O [Mi-D-Pro] | 17.2 ± 2.1 µM | 146 ± 5.2 µM | 0.15 | 128 ± 7.7 µM | 21 ± 2 µM | 123 ± 3 µM |  |  |  |  |  |
| N[C@@H](Cn1ccc(=O)c(O)c1)C(=O)N[C@H](Cc1c[nH]c2ccccc12)C(=O)O [Mi-D-Trp] | 17 µM and 16.9 µM | 150 ± 2.3 µM | 0.95 | 27.5 ± 2.2 µM | 26.1 ± 1.3 µM | 116 ± 4.9 µM | competitive | 80 µM |  |  |  |
| CC(C)[C@@H](NC(=O)[C@@H](N)Cn1ccc(=O)c(O)c1)C(=O)O [Mi-D-Val] | 10 µM and 10.3 µM | 162 ± 4.1 µM |  |  |  | 112 ± 8.1 µM | competitive | 20 µM |  |  |  |
| C[C@H](NC(=O)[C@@H](N)Cn1ccc(=O)c(O)c1)C(=O)O [Mi-L-Ala] | 23.1 ± 2.2 µM | 172 ± 4.6 µM |  |  |  | 128 ± 7.4 µM |  |  |  |  |  |
| N[C@@H](Cn1ccc(=O)c(O)c1)C(=O)N[C@@H](Cc1ccccc1)C(=O)O [Mi-L-Phe] | 24.1 ± 3.8 µM | 179.2 ± 1.3 µM |  |  |  | 121 ± 8.6 µM |  |  |  |  |  |
| N[C@@H](Cn1ccc(=O)c(O)c1)C(=O)N1CCC[C@H]1C(=O)O [Mi-L-Pro] | 13 µM and 13.1 µM | 167 ± 7.3 µM |  | 29.3 ± 3 µM | 17.9 ± 2.1 µM | 110 ± 5.3 µM | competitive | 50 µM |  |  |  |
| N[C@@H](Cn1ccc(=O)c(O)c1)C(=O)N[C@@H](Cc1c[nH]c2ccccc12)C(=O)O [Mi-L-Trp] | 19.2 ± 1.5 µM | 156 ± 8.3 µM |  | 19 µM and 19.3 µM | 20.4 ± 1.6 µM | 109 ± 2.7 µM |  |  |  |  |  |
| CC(C)[C@H](NC(=O)[C@@H](N)Cn1ccc(=O)c(O)c1)C(=O)O [Mi-L-Val] | 12 µM and 11.5 µM | 172 ± 6.5 µM | 1.12 | 22 µM and 21.7 µM | 24.4 ± 1.4 µM | 170 ± 7.5 µM | competitive | 30 µM |  |  |  |
| N[C@@H](Cn1ccc(=O)c(O)c1)C(=O)O [Mimosine, β-[N-(3-hydroxy-4-oxypyridyl)]-α-aminopropionic acid] | 32.4 ± 1.1 µM | ~388 µM | 1.38 | 21 µM and 20.9 µM | 29 µM and 28.8 µM | ~226 µM |  |  | 388 ± 7.2 µM | 226 ± 4 µM | competitive |

— paper PMC6332029, “Mimosine Dipeptide Enantiomsers: Improved Inhibitors against Melanogenesis and Cyclooxygenase” (Molecules, 2015)
